Assay results as given in article PMC11350787, “Antimicrobial Properties and Cytotoxicity of LL-37-Derived Synthetic Peptides to Treat Orthopedic Infections” (Antibiotics, 2024).
≈ marks a conversion by molar mass, not a printed value. Peptide text beside a SMILES is read from it.

Tests used:
S. aureus ATCC 25923 = assay: microbe, parasite or virus in culture
Summary of the method: (§1)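 Values are MIC and MBC, the latter being the concentration with no growth after MIC-well subculture on TSA at 37 °C for 24 h. Testing followed ISO20776-1 and CLSI guidance, with peptides reaching 300 µg/mL final.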

S. aureus ATCC 49230 = assay: microbe, parasite or virus in culture
Summary of the method: as §1

P. aeruginosa ATCC 27853 = assay: microbe, parasite or virus in culture
Summary of the method: as §1

E. coli ATCC 25922 = assay: microbe, parasite or virus in culture
Summary of the method: as §1

[1] = tested on: S. epidermidis ATCC 35984; assay: microbe, parasite or virus in culture
Summary of the method: as §1

S. aureus ATCC 43300 = assay: microbe, parasite or virus in culture
Summary of the method: as §1

[2] = tested on: S. epidermidis ATCC 14990; assay: microbe, parasite or virus in culture
Summary of the method: as §1

[3] = tested on: S. epidermidis GOI1153754-03-14 (CI); assay: microbe, parasite or virus in culture
Summary of the method: as §1

red blood cells (RBC) = assay: Hemolytic activity assessment; assay type: cell-based; settings: at 18.75 µg/mL; human RBC suspension in PBS, 1 h 37 °C, absorbance 414 nm; 0.1% Triton-X100 = 100%
Procedure: The pellet containing erythrocytes was washed 3 times in PBS centrifuging at 700× g for 8 min at RT. Finally, 40 µL of pellet containing red blood cells (RBC) was diluted in 8 mL of PBS, obtaining a 0.5% v/v RBC suspension.
The 96-well V plate was incubated at 37 °C for 1 h, then centrifuged at 1000× g for 10 min, and the supernatant (60 µL) was transferred to a 96-well flat bottom microplate for the absorption analysis on a microplate reader at 414 nm. The positive control (PC, 100% hemolysis) consisted of 0.1% Triton-X100 in PBS (pH 7.4), while PBS alone served as the negative control (NC, 0% hemolysis). Each hemolysis activity assessment test was carried out in two replicates and repeated three times.
NCs and PCs were averaged, then results were normalized to the average of PC and NC according to the following formula: % Hemolysis = (Abs treated − Abs NC/Abs PC − Abs NC) × 100. The hemolytic activity was also tested on TFA to exclude any toxicity caused by the buffer.

P. aeruginosa Pae2 (CI) = settings: Pae2 (CI, 18 h)
Summary of the method: as §1

P. aeruginosa Pae82 (CI) = settings: Pae82 (CI, 18 h)
Summary of the method: as §1

S. aureus Sau221 (CI) = settings: Sau221 (CI, 18 h)
Summary of the method: as §1

E. coli Eco61 (CI) = settings: Eco61 (CI, 18 h)
Summary of the method: as §1

P. aeruginosa Pae61 (CI) = settings: Pae61 (CI, 18 h)
Summary of the method: as §1

S. aureus Sau89 (CI) = settings: Sau89 (CI, 18 h)
Summary of the method: as §1

E. coli Eco53 (CI) = settings: Eco53 (CI, 18 h)
Summary of the method: as §1

S. aureus Sau39 (CI) = settings: Sau39 (CI, 18 h)
Summary of the method: as §1

Staphylococci = settings: 18 h
Summary of the method: as §1

E. coli Eco75 (CI) = settings: Eco75 (CI, 18 h)
Summary of the method: as §1

[4] = tested on: S. epidermidis ATCC 35984 biofilm; assay: Biofilm removal activity (CLSM, LIVE/DEAD); assay type: cell-based; settings: 72-h-old biofilm; 18 h; vancomycin 0.5%; p < 0.01 vs FK-16
Procedure: (§2) Rough titanium disks (Adler Ortho, Cormano, Milan, Italy) were autoclaved at 121°C for 15 min and placed into sterile 6-well plates. S. epidermidis ATCC 35984, S. epidermidis GOI1153754-03-14, S. aureus ATCC 49,230 and S. aureus Sau89 were grown overnight in BHI broth at 37 °C. The culture was diluted up to 1.5 × 10^6 in BHI broth and 6 mL of each culture was inoculated in the disk containing wells. Two disks were inoculated with sterile BHI as sterility control. All the plates were incubated at 37 °C for 72 h. After incubation, the disks were gently washed with sterile saline to remove unattached cells. Each disk was treated with either vancomycin at 0.5% (Pharmatex, Milan, Italy), GF-17 (18.75 µg/mL) or FK-16 (75 µg/mL) for 18 h. Two disks for each bacterial inoculum were untreated as control. Subsequently, disks were gently washed with sterile saline solution and stained with Filmtracer^TM LIVE/DEAD^TM Biofilm Viability Kit (Thermo Fisher Diagnostics, Monza, Italy), according to the manufacturer’s instructions, washed again with sterile saline and observed with an upright TCS SP8 (Leica Microsystems CMS GmbH, Mannheim, Germany) using a 20X dry objective (HC PL FLUOTAR 20X/0.50 DRY). The images were acquired with Las X (Leica Microsystems CMS GmbH, Mannheim, Germany) and analyzed with Fiji software (Fiji, ImageJ version 1.53t, Wayne Rasband National Institutes of Health). For each channel, the biofilm area was measured after setting the threshold at 14 for the red channel and 20 for the green channel. The biofilm data were expressed as the percentage of red signal (dead cells) relative to the green channel (live cells). Finally, the data were normalized against the control, which was set to 1.

[5] = tested on: S. aureus ATCC 49230 biofilm; assay: Biofilm removal activity (CLSM, LIVE/DEAD); assay type: cell-based; settings: 72-h-old biofilm; 18 h; vancomycin 0.5% vs FK-16 75 µg/mL; p < 0.01
Procedure: as §2

[6] = tested on: S. epidermidis GOI1153754-03-14 biofilm; assay: Biofilm removal activity (CLSM, LIVE/DEAD); assay type: cell-based; settings: titanium disks; 18 h treatment; FK-16 75 µg/mL, GF-17 18.75 µg/mL, vancomycin 0.5%
Procedure: as §2

S. aureus Sau89 biofilm = assay: Biofilm removal activity (CLSM, LIVE/DEAD); assay type: cell-based; settings: 72-h-old biofilm; 18 h; vancomycin 0.5% vs FK-16 75 µg/mL; p < 0.05
Procedure: as §2

CC[C@H](C)[C@H](NC(=O)[C@H](CCCNC(=N)N)NC(=O)[C@H](CCC(N)=O)NC(=O)[C@@H](NC(=O)[C@@H](NC(=O)[C@H](CCCNC(=N)N)NC(=O)[C@H](CCCCN)NC(=O)[C@H](Cc1ccccc1)NC(=O)CN)[C@@H](C)CC)C(C)C)C(=O)N[C@@H](CCCCN)C(=O)N[C@@H](CC(=O)O)C(=O)N[C@@H](Cc1ccccc1)C(=O)N[C@@H](CC(C)C)C(=O)N[C@@H](CCCNC(=N)N)C(=O)N[C@@H](CC(N)=O)C(=O)N[C@@H](CC(C)C)C(=O)N[C@H](C(N)=O)C(C)C [GF-17] (H-GFKRIVQRIKDFLRNLV-NH2)
Minimum Inhibitory Concentration (MIC) (S. aureus ATCC 25923; ATCC 25923, 18 h): 2.34 µg/mL
Minimum Bactericidal Concentration (MBC) (S. aureus ATCC 25923; ATCC 25923, 24 h): 37.50 µg/mL
Minimum Inhibitory Concentration (MIC) (S. aureus ATCC 49230; ATCC 49230, 18 h): 4.69 µg/mL
Minimum Bactericidal Concentration (MBC) (S. aureus ATCC 49230; ATCC 49230, 24 h): 75.00 µg/mL
Minimum Inhibitory Concentration (MIC) (P. aeruginosa ATCC 27853; ATCC 27853, 18 h): 18.75 µg/mL
Minimum Bactericidal Concentration (MBC) (P. aeruginosa ATCC 27853; ATCC 27853, 24 h): 75.00 µg/mL
Minimum Inhibitory Concentration (MIC) (E. coli ATCC 25922; ATCC 25922, 18 h): 9.38 µg/mL
Minimum Bactericidal Concentration (MBC) (E. coli ATCC 25922; ATCC 25922, 24 h): 300.00 µg/mL
Minimum Inhibitory Concentration (MIC) ([1]; ATCC 35984, 18 h): 2.34 µg/mL
Minimum Bactericidal Concentration (MBC) ([1]; ATCC 35984, 24 h): 4.69 µg/mL
Minimum Inhibitory Concentration (MIC) (S. aureus ATCC 43300; ATCC 43300, 18 h): 4.69 µg/mL
Minimum Bactericidal Concentration (MBC) (S. aureus ATCC 43300; ATCC 43300, 24 h): 150.00 µg/mL
Minimum Inhibitory Concentration (MIC) ([2]; ATCC 14990, 18 h): 4.69 µg/mL
Minimum Bactericidal Concentration (MBC) ([2]; ATCC 14990, 24 h): 75.00 µg/mL
Minimum Bactericidal Concentration (MBC) ([3]; GOI1153754-03-14 (CI, 18 h)): 37.50 µg/mL
Minimum Inhibitory Concentration (MIC) ([3]; GOI1153754-03-14 (CI, 18 h)): 2.34 µg/mL
Hemolytic activity (red blood cells (RBC)): below 1%
Minimum Bactericidal Concentration (MBC) (P. aeruginosa Pae2 (CI)): 150.00 µg/mL
Minimum Inhibitory Concentration (MIC) (P. aeruginosa Pae2 (CI)): 150.00 µg/mL
Minimum Bactericidal Concentration (MBC) (P. aeruginosa Pae82 (CI)): 300.00 µg/mL
Minimum Inhibitory Concentration (MIC) (P. aeruginosa Pae82 (CI)): 75.00 µg/mL
Minimum Bactericidal Concentration (MBC) (S. aureus Sau221 (CI)): 18.75 µg/mL
Minimum Inhibitory Concentration (MIC) (S. aureus Sau221 (CI)): 9.38 µg/mL
Minimum Bactericidal Concentration (MBC) (E. coli Eco61 (CI)): 18.75 µg/mL
Minimum Inhibitory Concentration (MIC) (E. coli Eco61 (CI)): 9.38 µg/mL
Minimum Bactericidal Concentration (MBC) (P. aeruginosa Pae61 (CI)): 150.00 µg/mL
Minimum Inhibitory Concentration (MIC) (P. aeruginosa Pae61 (CI)): 37.50 µg/mL
Minimum Bactericidal Concentration (MBC) (S. aureus Sau89 (CI)): 4.69 µg/mL
Minimum Inhibitory Concentration (MIC) (S. aureus Sau89 (CI)): 4.69 µg/mL
Minimum Bactericidal Concentration (MBC) (E. coli Eco53 (CI)): 75.00 µg/mL
Minimum Inhibitory Concentration (MIC) (E. coli Eco53 (CI)): 18.75 µg/mL
Minimum Bactericidal Concentration (MBC) (S. aureus Sau39 (CI)): 9.38 µg/mL
Minimum Inhibitory Concentration (MIC) (S. aureus Sau39 (CI)): 2.34 µg/mL
MBC range (bactericidal effect) against Staphylococci (Staphylococci): 4.69 to 150 µg/mL
Minimum Bactericidal Concentration (MBC) (E. coli Eco75 (CI)): 75.00 µg/mL
Minimum Inhibitory Concentration (MIC) (E. coli Eco75 (CI)): 18.75 µg/mL

CN[C@H](CC(C)C)C(=O)N[C@H]1C(=O)N[C@@H](CC(N)=O)C(=O)N[C@H]2C(=O)N[C@H]3C(=O)N[C@H](C(=O)N[C@H](C(=O)O)c4cc(O)cc(O)c4-c4cc3ccc4O)[C@H](O)c3ccc(c(Cl)c3)Oc3cc2cc(c3O[C@@H]2O[C@H](CO)[C@@H](O)[C@H](O)[C@H]2O[C@H]2C[C@](C)(N)[C@H](O)[C@H](C)O2)Oc2ccc(cc2Cl)[C@H]1O [Van, vancomycin]
Susceptibility category by MIC (EUCAST clinical breakpoints tables, v. 14) (S. aureus ATCC 25923; S. aureus 25923): S
MBC (S. aureus ATCC 25923; Staphylococcus aureus, ATCC25923, 24 h, read-out: Minimum Bactericidal Concentration (MBC)): 0.6 µg/mL (≈ 0.414 µM)
MIC (S. aureus ATCC 25923; Staphylococcus aureus, ATCC25923, read-out: Minimum Inhibitory Concentration (MIC)): 0.6 µg/mL (≈ 0.414 µM)
Susceptibility category by MIC (EUCAST clinical breakpoints tables, v. 14) (P. aeruginosa ATCC 27853; P. aeruginosa 27853): R
MBC (P. aeruginosa ATCC 27853; Pseudomonas aeruginosa, ATCC27853, 24 h, read-out: Minimum Bactericidal Concentration (MBC)): > 40 µg/mL
MIC (P. aeruginosa ATCC 27853; Pseudomonas aeruginosa, ATCC27853, read-out: Minimum Inhibitory Concentration (MIC)): > 40 µg/mL
Susceptibility category by MIC (EUCAST clinical breakpoints tables, v. 14) (E. coli ATCC 25922; E. coli 25922): R
MBC (E. coli ATCC 25922; Escherichia coli, ATCC25922, 24 h, read-out: Minimum Bactericidal Concentration (MBC)): > 40 µg/mL
MIC (E. coli ATCC 25922; Escherichia coli, ATCC25922, read-out: Minimum Inhibitory Concentration (MIC)): > 40 µg/mL
Susceptibility category by MIC (EUCAST clinical breakpoints tables, version 14) (S. aureus ATCC 43300; S. aureus 43,300 as printed in text): S
MBC (S. aureus ATCC 43300; Staphylococcus aureus, ATCC43300, 24 h, read-out: Minimum Bactericidal Concentration (MBC)): 0.6 µg/mL (≈ 0.414 µM)
MIC (S. aureus ATCC 43300; Staphylococcus aureus, ATCC43300, read-out: Minimum Inhibitory Concentration (MIC)): 0.6 µg/mL (≈ 0.414 µM)
Susceptibility category by MIC (EUCAST clinical breakpoints tables, v. 14) ([3]; S. epidermidis GOI1153754-03-14): S
MBC ([3]; Staphylococcus epidermidis, read-out: Minimum Bactericidal Concentration (MBC)): 2.5 µg/mL (≈ 1.73 µM)
MIC ([3]; Staphylococcus epidermidis, read-out: Minimum Inhibitory Concentration (MIC)): 1.25 µg/mL (≈ 0.863 µM)
Dead bacteria in biofilm (quantitative analysis of fluorescent signals, relative mortality) [4]: higher than the uninoculated control
Dead bacteria in biofilm (quantitative analysis of fluorescent signals, relative mortality) [5]: more dead cells compared to FK-16 treatment
CLSM observation of treated 72-h-old biofilm (live green / dead red) [6]: less disruptive effect
Dead bacteria in biofilm (quantitative analysis of fluorescent signals, relative mortality) (S. aureus Sau89 biofilm): more dead cells compared to FK-16 treatment
